Laboratory results reported in US9187480B2, “Peripherally restricted diphenyl purine derivatives” (RESEARCH TRIANGLE INSTITUTE, priority 2012, dated 2015).

How the values were obtained:
CB1 [1] = molecular target: T1, CB1 (Homo sapiens (Human), UniProt P21554); experiment: CB1 activated Gαq16-coupled intracellular calcium mobilization assay in CHO-K1 cells; format: cell-based; conditions: apparent affinity (Ke)
CB2 = CB2 (Homo sapiens (Human), UniProt P34972); experiment: Displacement of [3H]CP55940 in membranes of CHO-K1 cells over-expressing CB2; format: binding; conditions: radioligand [3H]CP55940, CHO-K1 membranes; read-out: Ki (nM) v. [3H]CP55940 at CB2
CB2, sequence (P34972 whole entry): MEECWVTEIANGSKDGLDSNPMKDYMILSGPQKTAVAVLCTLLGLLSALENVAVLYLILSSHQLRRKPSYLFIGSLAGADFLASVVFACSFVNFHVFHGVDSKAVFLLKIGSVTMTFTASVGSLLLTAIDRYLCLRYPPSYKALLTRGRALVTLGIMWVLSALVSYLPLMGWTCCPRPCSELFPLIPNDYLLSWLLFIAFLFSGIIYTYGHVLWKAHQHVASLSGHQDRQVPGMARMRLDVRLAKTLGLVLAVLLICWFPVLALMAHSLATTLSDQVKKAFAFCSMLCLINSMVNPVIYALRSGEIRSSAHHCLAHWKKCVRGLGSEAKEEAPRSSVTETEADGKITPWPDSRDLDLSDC

MDCK-MDR = MDCK-MDR transport (apical to basal); format: in vitro ADME
CB1 [2] = molecular target: T1, CB1; experiment: Displacement of [3H]CP55940 in membranes of CHO-K1 cells over-expressing CB1;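 on all read-outs here: reported values are averages of 3-6 independent measurements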; conditions: for Binding Selectivity using CP55940 Displacement: CB1 versus CB2; for Ki: read-out: Ki (nM) v. [3H]CP55940 at CB1, radioligand [3H]CP55940, CHO-K1 membranes
Description: Further characterization of select compounds was performed using radioligand displacement of [3H]1 and equilibrium dissociation constant (Ki) values were determined. Selectivity of these compounds at CB1 versus CB2 was also determined by obtaining Ki values at either receptor using displacement of [3H]CP55940 in membranes of CHO-K1 cells over-expressing either receptor. Data reported are average values from 3-6 measurements.
Selectivity against the CB2 receptor was determined by comparing the compound displacement of radiolabeled CP55940, which is a cannabinoid known to act as a full agonist at both CB1 and CB2 receptors.

[3] = Brain penetration / plasma and brain levels after oral dosing in SD rats; format: in vivo, Sprague-Dawley (SD) rats; conditions: oral 10 mg/kg; for Kp at 1 h / Kp at 2 h / Kp at 4 h / Kp at 24 h / Kp: Sprague-Dawley, rat, brain and plasma; for Kp: range over sampling times, read-out: brain to plasma ratios; for Brain conc.: unperfused brain
Description: However, unlike otenabant, this sulfonamide is a peripherally selective compound. […] Select compounds were chosen for study to determine penetration into the CNS. Selected compounds were dosed orally at 10 mg/kg in SD rats. Brain and plasma samples were collected at 1, 2, 4, and 24 hours post dose and samples were analyzed by MS (Table 2, below). Since unperfused brains were used and the blood volume in unperfused brains is approximately 4%, a brain to plasma level of ≦0.04 represents no discernible penetration into the CNS.

T1 sequence (P21554 whole entry): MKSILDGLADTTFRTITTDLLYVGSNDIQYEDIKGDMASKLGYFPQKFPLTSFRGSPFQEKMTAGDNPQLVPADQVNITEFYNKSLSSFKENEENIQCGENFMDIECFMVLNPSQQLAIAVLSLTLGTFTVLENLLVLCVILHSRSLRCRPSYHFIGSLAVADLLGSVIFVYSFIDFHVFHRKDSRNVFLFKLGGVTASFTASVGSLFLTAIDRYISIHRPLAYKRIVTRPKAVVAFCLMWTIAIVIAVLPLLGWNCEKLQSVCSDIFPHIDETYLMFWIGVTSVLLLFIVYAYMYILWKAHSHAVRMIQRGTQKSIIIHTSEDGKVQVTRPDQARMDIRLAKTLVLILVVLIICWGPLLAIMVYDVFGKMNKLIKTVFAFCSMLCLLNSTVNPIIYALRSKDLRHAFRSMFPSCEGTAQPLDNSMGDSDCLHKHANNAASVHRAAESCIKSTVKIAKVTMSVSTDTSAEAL

| Structure (SMILES) | Ke (nM) at CB1 (CB1 [1]) | Ki (CB2) [nM] | Binding Selectivity using CP55940 Displacement (CB1 [2]) | Ki (CB1 [2]) [nM] | further results |
| --- | --- | --- | --- | --- | --- |
| NC1(c2ccccc2)CCN(c2ncnc3c2nc(-c2ccccc2Cl)n3-c2ccc(Cl)cc2)CC1 | 15.89 nM | 1660 | 151 | 11 | % MDCK-MDR transport (Apical to Basal) (MDCK-MDR): <1% |
| CC(C)(C)OC(=O)NC1(c2ccccc2)CCN(c2ncnc3c2nc(-c2ccccc2Cl)n3-c2ccc(Cl)cc2)CC1 | 3.93 nM | 13900 | 1959 | 7.12 | % MDCK-MDR transport (Apical to Basal) (MDCK-MDR): <1% |
| CC(C)(C)NC(=O)NC1(c2ccccc2)CCN(c2ncnc3c2nc(-c2ccccc2Cl)n3-c2ccc(Cl)cc2)CC1 | 19.17 nM | 20000 | 784 | 25.5 | % MDCK-MDR transport (Apical to Basal) (MDCK-MDR): <1% |
| CC(=O)NC1(c2ccccc2)CCN(c2ncnc3c2nc(-c2ccccc2Cl)n3-c2ccc(Cl)cc2)CC1 | 10.31 nM | 726 | 121 | 6 | % MDCK-MDR transport (Apical to Basal) (MDCK-MDR): 6% |
| CC(C)(C)NC(=O)C1(c2ccccc2)CCN(c2ncnc3c2nc(-c2ccccc2Cl)n3-c2ccc(Cl)cc2)CC1 | 2.2 nM | 20000 | 4902 | 4.08 | % MDCK-MDR transport (Apical to Basal) (MDCK-MDR): <1% |
| CCNC(=O)NC1(c2ccccc2)CCN(c2ncnc3c2nc(-c2ccccc2Cl)n3-c2ccc(Cl)cc2)CC1 | 443 nM | 4640 | 24 | 195 | – |
| CC(C)NC(=O)NC1(c2ccccc2)CCN(c2ncnc3c2nc(-c2ccccc2Cl)n3-c2ccc(Cl)cc2)CC1 | 46 nM | – | – | – | – |
| CCCNC(=O)NC1(c2ccccc2)CCN(c2ncnc3c2nc(-c2ccccc2Cl)n3-c2ccc(Cl)cc2)CC1 | 100 nM | – | – | – | – |
| CCCCNC(=O)NC1(c2ccccc2)CCN(c2ncnc3c2nc(-c2ccccc2Cl)n3-c2ccc(Cl)cc2)CC1 | 62 nM | – | – | – | – |
| CCOC(=O)CNC(=O)NC1(c2ccccc2)CCN(c2ncnc3c2nc(-c2ccccc2Cl)n3-c2ccc(Cl)cc2)CC1 | 171 nM | – | – | – | – |
| O=C(NC1CCCCC1)NC1(c2ccccc2)CCN(c2ncnc3c2nc(-c2ccccc2Cl)n3-c2ccc(Cl)cc2)CC1 | 199 nM | – | – | – | – |
| CC(C)(C)OC(=O)N1CCC(Nc2ncnc3c2nc(-c2ccccc2Cl)n3-c2ccc(Cl)cc2)CC1 | 92 nM | 13600 | 568.8 | 23.9 | – |
| Clc1ccc(-n2c(-c3ccccc3Cl)nc3c(NC4CCNCC4)ncnc32)cc1 | Not active | – | – | – | – |
| CCNC(=O)N1CCC(Nc2ncnc3c2nc(-c2ccccc2Cl)n3-c2ccc(Cl)cc2)CC1 | 1148 nM | – | – | – | – |
| CC(C)NC(=O)N1CCC(Nc2ncnc3c2nc(-c2ccccc2Cl)n3-c2ccc(Cl)cc2)CC1 | 495 nM | – | – | – | – |
| CCCNC(=O)N1CCC(Nc2ncnc3c2nc(-c2ccccc2Cl)n3-c2ccc(Cl)cc2)CC1 | 1964 nM | – | – | – | – |
| CCCCNC(=O)N1CCC(Nc2ncnc3c2nc(-c2ccccc2Cl)n3-c2ccc(Cl)cc2)CC1 | 71 nM | – | – | – | – |
| CC(=O)N1CCC(Nc2ncnc3c2nc(-c2ccccc2Cl)n3-c2ccc(Cl)cc2)CC1 | 19595 nM | – | – | – | – |
| CS(=O)(=O)N1CCC(Nc2ncnc3c2nc(-c2ccccc2Cl)n3-c2ccc(Cl)cc2)CC1 | 1645 nM | – | – | – | – |
| CC(=O)N1CCCC(Nc2ncnc3c2nc(-c2ccccc2Cl)n3-c2ccc(Cl)cc2)C1 (stereo not drawn) | 4449 nM | – | – | – | – |
| CCNC(=O)N1CCCC(Nc2ncnc3c2nc(-c2ccccc2Cl)n3-c2ccc(Cl)cc2)C1 (stereo not drawn) | 1153 nM | – | – | – | – |
| CC(C)(C)OC(=O)NC1CCN(c2ncnc3c2nc(-c2ccccc2Cl)n3-c2ccc(Cl)cc2)CC1 | 11 nM | – | – | – | – |
| COC(=O)NC1CCN(c2ncnc3c2nc(-c2ccccc2Cl)n3-c2ccc(Cl)cc2)CC1 | 17 nM | – | – | – | – |
| O=C(NC1CCN(c2ncnc3c2nc(-c2ccccc2Cl)n3-c2ccc(Cl)cc2)CC1)c1ccccc1 | – | 10600 | – | – | – |

| Structure (SMILES) | Ke (nM) at CB1 (CB1 [1]) | Ki (CB2) [nM] | Binding Selectivity using CP55940 Displacement (CB1 [2]) | Ki (CB1 [2]) [nM] | further results |
| --- | --- | --- | --- | --- | --- |
| NC1CCN(c2ncnc3c2nc(-c2ccccc2Cl)n3-c2ccc(Cl)cc2)CC1 | 316 nM | – | – | – | – |
| CCNC(=O)NC1CCN(c2ncnc3c2nc(-c2ccccc2Cl)n3-c2ccc(Cl)cc2)CC1 | 149 nM | – | – | – | – |
| CC(C)NC(=O)NC1CCN(c2ncnc3c2nc(-c2ccccc2Cl)n3-c2ccc(Cl)cc2)CC1 | 133 nM | – | – | – | – |
| CCCNC(=O)NC1CCN(c2ncnc3c2nc(-c2ccccc2Cl)n3-c2ccc(Cl)cc2)CC1 | 132 nM | – | – | – | – |
| CCCCNC(=O)NC1CCN(c2ncnc3c2nc(-c2ccccc2Cl)n3-c2ccc(Cl)cc2)CC1 | 49 nM | – | – | – | – |
| CS(=O)(=O)NC1CCN(c2ncnc3c2nc(-c2ccccc2Cl)n3-c2ccc(Cl)cc2)CC1 | 71 nM | – | – | – | – |
| NS(=O)(=O)NC1CCN(c2ncnc3c2nc(-c2ccccc2Cl)n3-c2ccc(Cl)cc2)CC1 | 2768 nM | – | – | – | – |
| O=S(=O)(NC1CCN(c2ncnc3c2nc(-c2ccccc2Cl)n3-c2ccc(Cl)cc2)CC1)C(F)(F)F | 1.05 nM | 4500 | 738 | 6.1 | – |
| O=S(=O)(NC1CCN(c2ncnc3c2nc(-c2ccccc2Cl)n3-c2ccc(Cl)cc2)CC1)c1ccccc1 | 0.26 nM | – | – | – | – |
| CC(=O)NC1CCN(c2ncnc3c2nc(-c2ccccc2Cl)n3-c2ccc(Cl)cc2)CC1 | 631 nM | – | – | – | – |
| O=C(NC1CCN(c2ncnc3c2nc(-c2ccccc2Cl)n3-c2ccc(Cl)cc2)CC1)C(F)(F)F | 3.19 nM | – | – | – | – |
| O=C(CCN1CCCCC1)NC1CCN(c2ncnc3c2nc(-c2ccccc2Cl)n3-c2ccc(Cl)cc2)CC1 | 789 nM | – | – | – | – |
| CN(C)CC(=O)NC1CCN(c2ncnc3c2nc(-c2ccccc2Cl)n3-c2ccc(Cl)cc2)CC1 | 140 nM | – | – | – | – |
| O=C(NC1CCN(c2ncnc3c2nc(-c2ccccc2Cl)n3-c2ccc(Cl)cc2)CC1)C1CCCCC1 | 3.3 nM | 835 | 249 | 3.35 | – |
| O=C(CC1CCCCC1)NC1CCN(c2ncnc3c2nc(-c2ccccc2Cl)n3-c2ccc(Cl)cc2)CC1 | 2.1 nM | 2360 | – | 1.93 | – |
| CC(C)CC(=O)NC1CCN(c2ncnc3c2nc(-c2ccccc2Cl)n3-c2ccc(Cl)cc2)CC1 | 5.4 nM | 89.5 | 22 | 4.01 | – |
| O=C(NC1CCN(c2ncnc3c2nc(-c2ccccc2Cl)n3-c2ccc(Cl)cc2)CC1)C1CCCC1 | 0.89 nM | 60.2 | 39 | 1.54 | – |
| CC(C)CCC(=O)NC1CCN(c2ncnc3c2nc(-c2ccccc2Cl)n3-c2ccc(Cl)cc2)CC1 | 7.4 nM | 215 | 81 | 2.67 | – |
| O=C(CC1CCCC1)NC1CCN(c2ncnc3c2nc(-c2ccccc2Cl)n3-c2ccc(Cl)cc2)CC1 | 2.9 nM | 569 | 282 | 2.02 | – |
| CCOC(=O)NC1CCN(c2ncnc3c2nc(-c2ccccc2Cl)n3-c2ccc(Cl)cc2)CC1 [drawing 62] | 2.3 nM | 426 | 119 | 3.57 | – |
| CCCCC(=O)NC1CCN(c2ncnc3c2nc(-c2ccccc2Cl)n3-c2ccc(Cl)cc2)CC1 [drawing 78] | 4.9 nM | 1050 | 54 | 19.5 | – |
| CCOC(=O)NC1CCN(c2ncnc3c2nc(-c2ccccc2Cl)n3-c2ccc(Cl)cc2)CC1 [drawing 84] | – | – | – | – | Kp at 1 h ([3]; 1 hour post dose): 0.28; Kp at 2 h ([3]; 2 hours post dose): 0.14; Kp at 4 h ([3]; 4 hours post dose): 0.16; Kp at 24 h ([3]; 24 hours post dose): 0.46; Kp [3]: 0.14 to 0.46; Plasma conc. ([3]; 1 hour post dose): 740 ng/mL; Plasma conc. ([3]; 2 hours post dose): 971 ng/mL; Plasma conc. ([3]; 4 hours post dose): 1750 ng/mL; Plasma conc. ([3]; 24 hours post dose): 72.6 ng/mL; Brain conc. ([3]; 1 hour post dose): 207 ng/mL; Brain conc. ([3]; 2 hours post dose): 132 ng/mL; Brain conc. ([3]; 4 hours post dose): 276 ng/mL; Brain conc. ([3]; 24 hours post dose): 33.5 ng/mL |
| CCCCC(=O)NC1CCN(c2ncnc3c2nc(-c2ccccc2Cl)n3-c2ccc(Cl)cc2)CC1 [drawing 85] | – | – | – | – | Kp at 1 h ([3]; 1 hour post dose): 0.03; Kp at 2 h ([3]; 2 hours post dose): 0.03; Kp at 4 h ([3]; 4 hours post dose): 0.07; Kp at 24 h ([3]; 24 hours post dose): 0.13; Kp [3]: 0.03 to 0.13; Plasma conc. ([3]; 1 hour post dose): 1430 ng/mL; Plasma conc. ([3]; 2 hours post dose): 2780 ng/mL; Plasma conc. ([3]; 4 hours post dose): 1680 ng/mL; Plasma conc. ([3]; 24 hours post dose): 18.7 ng/mL; Brain conc. ([3]; 1 hour post dose): 43.6 ng/mL; Brain conc. ([3]; 2 hours post dose): 72.4 ng/mL; Brain conc. ([3]; 4 hours post dose): 119 ng/mL; Brain conc. ([3]; 24 hours post dose): 2.36 ng/mL |
